Results: US11396511B2, “Substituted 9,13b-dihydro-1H-dibenzo[c,f]imidazo[1,5-a]azepin-3-ylbenzamides as anti-inflammatory and analgesic agents” (FRONTBIO CO., LTD., priority 2017, dated 2022)
Several values for one entry are separate records, joined by “and”; a condition that tells them apart may be missing. Equal values may be shown once.

Assays:
[1] = test system: Akt; assay: Western blot analysis, Akt signaling by LPS signals; type: cell-based
Protocol: Cells were harvested, washed with 1×PBS, and suspended by adding a mixture of a protein extraction buffer (150 mM NaCl, 50 mM Tris-HCl pH 7.4, 5 mM EDTA pH 8.0, 1% NP-40) and a protease inhibitor cocktail. Then, the reaction was allowed to proceed in ice for 20 min, sonicated, and centrifuged (13,000 rpm, 30 min). The concentration of proteins in the supernatant was quantified by a BCA protein assay and proteins were separated on the basis of size on an SDS-PAGE gel. Thereafter, proteins were transferred to a PVDF membrane and blocked with skim milk for 1 h. Primary and secondary antibodies were coupled and photosensitized with ECL solution to determine the expression levels of desired proteins.

[2] = test system: mice; assay: Formalin test (5% formalin, hind foot sole); type: in vivo; design: formalin test pain response: unit not given beside the values
Protocol: 5% formalin was injected subcutaneously into the soles of the hind feet of mice. The mice licked their soles and shook their paws owing to formalin-induced pain. At 20-40 min post-injection (2nd phase), the mice again licked their soles or shook their paws. Pain felt for 5 min post-injection (1st phase) is the same level as the sensation of pain when the body is harmfully stimulated. Pain between 20 and 40 min (2nd phase) is mainly tonic inflammatory pain and is known to be very similar to pain after a big surgical operation.
30 min after pretreatment with the compound 3 (E-S) at concentrations of 10, 20, 40, and 80 mg/kg, formalin test was conducted to assess the analgesic efficacy of the compound 3. […] The analgesic efficacy of the compound 4 (E-A) was assessed in the same manner as that of the compound 3.

[3] = test system: streptozotocin-induced diabetic mice; assay: Von-frey test in diabetic neuropathy models; type: in vivo; design: threshold values (Von-frey test): unit not given here
Protocol: 65 mg/kg of streptozotocin (Sigma Corp., USA) was dissolved at a concentration of 15 mg/ml in 0.1 M citrate buffer at pH 4.5 and the resulting solution was administered intraperitoneally to mice. Blood glucose levels were measured 1 week after administration and streptozotocin-induced diabetic mice were chosen.
After damage to the sciatic nerve, allodynia induced by the mechanical stimulus was measured. Mice were housed in acrylic chambers on a steel mesh floor and acclimated for ≥60 min before testing. Continuous responses were evaluated using Von-frey filaments by the up-down method. The filaments were brought into vertical contact with the affected left soles and the contact was maintained for 5-6 sec. The response was considered to be positive when the mouse rapidly avoided the stimulus, startled or licked its sole. The Von-frey filaments were first used to stimulate the mice.
The inhibitory effects of the test substances on pain were determined in diabetic neuropathy models. To this end, after oral administration of each test substance at concentrations of 10, 20, 40, and 80 mg/kg, threshold values were measured at different periods of time through Von-frey test.

[4] = test system: Raw 264.7 cells; assay: Cell viability measurement (MTS); type: cell-based
Protocol: Raw 264.7 cells were plated in a 96-well cell culture plate (50,000 cells/well). The cell culture media were removed from the 96-well cell culture plate. 100 μl of MTS reagent (CellTiter 96 AQueous One Solution Cell Proliferation Assay, Promega) was added to each well and the reaction was allowed to proceed at 37° C. for 20 min. After the reaction was finished, the cell viability were determined by measuring the absorbance at a wavelength of 490 nm.

[5] = test system: Raw 264.7 cells; assay: Measurement of NO production in LPS-stimulated Raw 264.7 cells; type: cell-based
Protocol: Raw 264.7 cells were plated in a 96-well cell culture plate (50,000 cells/well). Lipopolysaccharide (LPS) was diluted to 100 ng/ml and the dilution was added to the cell culture media The LPS stimulus was applied for 24 h to induce the activity of the Raw 264.7 cells and supernatants (50 μl each) obtained from the 96-well cell culture plate were plated in a new plate. 50 μl of a sulfanilamide solution was added and the reaction was allowed to proceed for 10 min. 50 μl of a NED solution was added and the reaction was allowed to proceed for 10 min. The amount of NO produced from the cells in the cell culture media was determined by measuring the absorbance at a wavelength of 540 nm.

[6] = test system: mice; assay: Writhing test (1% acetic acid intraperitoneally); type: in vivo; settings: for numbers of stretching and writhing movements: 30 min pretreatment
Protocol: In accordance with the most common method for measuring the analgesic efficacies of the test substances in the peripheral nerve based on abdominal contraction responses as indices, 1% acetic acid was administered intraperitoneally to mice to induce damage or pain of the abdominal peripheral vessels. After acetic acid administration, the behavioral profiles of the mice were observed and the numbers of stretching and writhing movements of the mice were counted to determine the analgesic efficacies of the test substances.
30 min after pretreatment with the compound 3 (E-S) at concentrations of 10, 20, 40, and 80 mg/kg, writhing test was conducted to assess the analgesic efficacy of the compound 3. As a result, the analgesic efficacy of the compound 3 was concentration-dependent (FIG. 4a and Table 4). The analgesic efficacy of the compound 4 (E-A) was assessed in the same manner as that of the compound 3.

## CC(=O)Oc1ccccc1C(=O)NC1=NCC2c3ccccc3Cc3ccccc3N12 (centres unmarked) [E-A, 2-((9,13b-dihydro-1H-dibenzo[c,f]imidazo[1,5-a]azepin-3-yl)carbamoyl)phenyl acetate]
[1]
  effect on Akt signaling by LPS signals: found to affect both MAPK signaling and Akt signaling by LPS signals and reduce the activity of proteins
[2]; 10 mg/kg, first column group (1st phase, not given)
  formalin test pain response: 73.0
[2]; 10 mg/kg, second column group (2nd phase, not given)
  formalin test pain response: 102.0
[2]; 20 mg/kg, first column group (1st phase, not given)
  formalin test pain response: 54.7
[2]; 20 mg/kg, second column group (2nd phase, not given)
  formalin test pain response: 83.5
[2]; 40 mg/kg, first column group (1st phase, not given)
  formalin test pain response: 62.0
[2]; 40 mg/kg, second column group (2nd phase, not given)
  formalin test pain response: 60.0
[2]; 80 mg/kg, first column group (1st phase, not given)
  formalin test pain response: 61.5
[2]; 80 mg/kg, second column group (2nd phase, not given)
  formalin test pain response: 60.0
[2]; 10, 20, 40, 80 mg/kg
  analgesic efficacy in formalin test (in words): observed in the 2n^d phase
[3]; oral 10 mg/kg, 1 h
  threshold values (Von-frey test): 0.260
[3]; oral 10 mg/kg, 2 h
  threshold values (Von-frey test): 0.263
[3]; oral 10 mg/kg, 3 h
  threshold values (Von-frey test): 0.324
[3]; oral 10 mg/kg, 4 h
  threshold values (Von-frey test): 0.286
[3]; oral 10 mg/kg, 5 h
  threshold values (Von-frey test): 0.225
[3]; oral 10 mg/kg, basal
  threshold values (Von-frey test): 0.286
[3]; oral 20 mg/kg, 1 h
  threshold values (Von-frey test): 0.263
[3]; oral 20 mg/kg, 2 h
  threshold values (Von-frey test): 0.324
[3]; oral 20 mg/kg, 3 h
  threshold values (Von-frey test): 0.321
[3]; oral 20 mg/kg, 4 h
  threshold values (Von-frey test): 0.247
[3]; oral 20 mg/kg, 5 h
  threshold values (Von-frey test): 0.225
[3]; oral 20 mg/kg, basal
  threshold values (Von-frey test): 0.186
[3]; oral 40 mg/kg, 1 h
  threshold values (Von-frey test): 0.286
[3]; oral 40 mg/kg, 2 h
  threshold values (Von-frey test): 0.458
[3]; oral 40 mg/kg, 3 h
  threshold values (Von-frey test): 0.419
[3]; oral 40 mg/kg, 4 h
  threshold values (Von-frey test): 0.391
[3]; oral 40 mg/kg, 5 h
  threshold values (Von-frey test): 0.186
[3]; oral 40 mg/kg, basal
  threshold values (Von-frey test): 0.247
[3]; oral 80 mg/kg, 1 h
  threshold values (Von-frey test): 0.391
[3]; oral 80 mg/kg, 2 h
  threshold values (Von-frey test): 0.391
[3]; oral 80 mg/kg, 3 h
  threshold values (Von-frey test): 0.247
[3]; oral 80 mg/kg, 4 h
  threshold values (Von-frey test): 0.286
[3]; oral 80 mg/kg, 5 h
  threshold values (Von-frey test): 0.186
[3]; oral 80 mg/kg, basal
  threshold values (Von-frey test): 0.208
[3]; oral 10, 20, 40, 80 mg/kg
  analgesic efficacy, Von-frey test (in words): concentration-dependent from 1 h after treatment and was maintained until 3 h after treatment
[3]; oral 10, 20, 40, 80 mg/kg tested
  concentration of highest analgesic efficacy, Von-frey test: 40 mg/kg and 80 mg/kg
[4]
  cell toxicity (cell viability, MTS): no cell toxicities were observed
[5]; Mus musculus, RAW264.7, 12.5 μM, LPS 100 ng/ml, 24 h
  inhibition at 12.5 µM: 0%
[5]; Mus musculus, RAW264.7, 25 μM, LPS 100 ng/ml, 24 h
  inhibition at 25 µM: 17.1%
[5]; Mus musculus, RAW264.7, 50 μM, LPS 100 ng/ml, 24 h
  inhibition at 50 µM: 40.1%
[5]; Mus musculus, RAW264.7, 100 μM, LPS 100 ng/ml, 24 h
  inhibition at 100 µM: 52.4%
[5]; together with LPS (100 ng/ml)
  reduction of NO production (in words): concentration-dependent reduction in NO production
[6]; 10 mg/kg
  numbers of stretching and writhing movements: 8.25
[6]; 20 mg/kg
  numbers of stretching and writhing movements: 13.75
[6]; 40 mg/kg
  numbers of stretching and writhing movements: 11.25
[6]; 80 mg/kg
  numbers of stretching and writhing movements: 12.25
[6]; 10, 20, 40, 80 mg/kg tested
  concentration of best analgesic efficacy in writhing test: 10 mg/kg
